Columns and labels:
DU-145 = test: NCI human tumor cell panel: DU-145 (Prostate Cancer); format: cell-based
MCF7 = test: NCI human tumor cell panel: MCF7 (Breast Cancer); format: cell-based
SN12C = test: NCI human tumor cell panel: SN12C (Renal Cancer); format: cell-based
RXF-393 = test: NCI human tumor cell panel: RXF-393 (Renal Cancer); format: cell-based
MALME-3M = test: NCI human tumor cell panel: MALME-3M (Melanoma); format: cell-based; settings: Malme-3M
PC-3 = test: NCI human tumor cell panel: PC-3 (Prostate Cancer); format: cell-based
K-562 = test: NCI human tumor cell panel: K-562 (Leukemia); format: cell-based
SNB-19 = test: NCI human tumor cell panel: SNB-19 (CNS Cancer); format: cell-based
CCRF-CEM = test: NCI human tumor cell panel: CCRF-CEM (Leukemia); format: cell-based
UACC-257 = test: NCI human tumor cell panel: UACC-257 (Melanoma); format: cell-based
SK-OV-3 = test: NCI human tumor cell panel: SK-OV-3 (Ovarian Cancer); format: cell-based; settings: SK-OV-3, read-out: Log10 GI50 (converted)
KM12 = test: NCI human tumor cell panel: KM12 (Colon Cancer); format: cell-based
OVCAR-4 = test: NCI human tumor cell panel: OVCAR-4 (Ovarian Cancer); format: cell-based
NCI-H226 = test: NCI human tumor cell panel: NCI-H226 (Non-Small Cell Lung Cancer); format: cell-based
MDA-MB-231/ATCC = test: NCI human tumor cell panel: MDA-MB-231/ATCC (Breast Cancer); format: cell-based; settings: Homo sapiens, MDA-MB-231, MDA-MB-231/ATCC
SF-268 = test: NCI human tumor cell panel: SF-268 (CNS Cancer); format: cell-based
HOP-92 = test: NCI human tumor cell panel: HOP-92 (Non-Small Cell Lung Cancer)
[1] = system: panel of sixty different human tumor cell lines; test: NCI human tumor cell panel: whole panel (mean graph summary); settings: whole panel
HCC-2998 = test: NCI human tumor cell panel: HCC-2998 (Colon Cancer); format: cell-based
HS 578T = test: NCI human tumor cell panel: HS 578T (Breast Cancer); format: cell-based
OVCAR-5 = test: NCI human tumor cell panel: OVCAR-5 (Ovarian Cancer); format: cell-based
SR = test: NCI human tumor cell panel: SR (Leukemia); format: cell-based
T-47D = test: NCI human tumor cell panel: T-47D (Breast Cancer); format: cell-based; settings: T47D
HL-60(TB) = test: NCI human tumor cell panel: HL-60(TB) (Leukemia); format: cell-based
HOP-62 = test: NCI human tumor cell panel: HOP-62 (Non-Small Cell Lung Cancer); format: cell-based
HCT-15 = test: NCI human tumor cell panel: HCT-15 (Colon Cancer); format: cell-based
COLO 205 = test: NCI human tumor cell panel: COLO 205 (Colon Cancer); format: cell-based
UACC-62 = test: NCI human tumor cell panel: UACC-62 (Melanoma); format: cell-based
CAKI-1 = test: NCI human tumor cell panel: CAKI-1 (Renal Cancer); format: cell-based
[2] = read-out: Log10 GI50 (converted)
[3] = read-out: Log10 TGI (converted)

Compound: OCc1ccc(-c2ccc(-c3ccc(CO)s3)[se]2)s1 [compound 675343]
- GI50 (DU-145; DU-145, read-out: Log10 GI50 (converted)): > 100 µM
- IC (TGI) (DU-145; DU-145, read-out: Log10 TGI (converted)): > 100 µM
- GI50 (MCF7; MCF7, read-out: Log10 GI50 (converted)): < 0.01 µM
- IC (TGI) (MCF7; MCF7, read-out: Log10 TGI (converted)): > 100 µM
- GI50 (SN12C; [2]): > 100 µM
- IC (TGI) (SN12C; [3]): > 100 µM
- GI50 (RXF-393; RXF-393, read-out: Log10 GI50 (converted)): 20.9 µM
- IC (TGI) (RXF-393; RXF-393, read-out: Log10 TGI (converted)): > 100 µM
- GI50 (MALME-3M; [2]): > 100 µM
- IC (TGI) (MALME-3M; [3]): > 100 µM
- GI50 (PC-3; PC-3, read-out: Log10 GI50 (converted)): > 100 µM
- IC (TGI) (PC-3; PC-3, read-out: Log10 TGI (converted)): > 100 µM
- GI50 (K-562; K562, K-562, read-out: Log10 GI50 (converted)): < 0.01 µM
- IC (TGI) (K-562; K562, K-562, read-out: Log10 TGI (converted)): 26.3 µM
- GI50 (SNB-19; SNB-19, read-out: Log10 GI50 (converted)): > 100 µM
- IC (TGI) (SNB-19; SNB-19, read-out: Log10 TGI (converted)): > 100 µM
- GI50 (CCRF-CEM; [2]): 22.4 µM
- IC (TGI) (CCRF-CEM; [3]): 60.3 µM
- GI50 (UACC-257; UACC-257, read-out: Log10 GI50 (converted)): < 0.01 µM
- IC (TGI) (UACC-257; UACC-257, read-out: Log10 TGI (converted)): < 0.01 µM
- GI50 (SK-OV-3): > 100 µM
- GI50 (KM12; KM12, read-out: Log10 GI50 (converted)): > 100 µM
- IC (TGI) (KM12; KM12, read-out: Log10 TGI (converted)): > 100 µM
- GI50 (OVCAR-4; OVCAR-4, read-out: Log10 GI50 (converted)): < 0.01 µM
- IC (TGI) (OVCAR-4; OVCAR-4, read-out: Log10 TGI (converted)): > 100 µM
- GI50 (NCI-H226; NCI-H226, read-out: Log10 GI50 (converted)): < 0.01 µM
- IC (TGI) (NCI-H226; NCI-H226, read-out: Log10 TGI (converted)): 0.0724 µM
- GI50 (MDA-MB-231/ATCC; [2]): > 100 µM
- IC (TGI) (MDA-MB-231/ATCC; [3]): > 100 µM
- GI50 (SF-268; SF-268, read-out: Log10 GI50 (converted)): > 100 µM
- IC (TGI) (SF-268; SF-268, read-out: Log10 TGI (converted)): > 100 µM
- GI50 (HOP-92; HOP-92, read-out: Log10 GI50 (converted)): 40.7 µM
- IC (TGI) (HOP-92; HOP-92, read-out: Log10 TGI): > 100 µM
- Log10 GI50, Delta [1]: −5.36
- Log10 LC50, Delta [1]: −4.06
- Log10 TGI, Delta [1]: −4.41
- Log10 TGI, Range [1]: 3.59
- GI50 (HCC-2998; HCC-2998, read-out: Log10 GI50 (converted)): < 0.01 µM
- IC (TGI) (HCC-2998; HCC-2998, read-out: Log10 TGI (converted)): 3.39 µM
- GI50 (HS 578T; [2]): > 100 µM
- IC (TGI) (HS 578T; [3]): > 100 µM
- GI50 (OVCAR-5; OVCAR-5, read-out: Log10 GI50 (converted)): 0.158 µM
- IC (TGI) (OVCAR-5; OVCAR-5, read-out: Log10 TGI (converted)): > 100 µM
- GI50 (SR; [2]): > 100 µM
- IC (TGI) (SR; [3]): > 100 µM
- GI50 (T-47D; [2]): 0.724 µM
- IC (TGI) (T-47D; [3]): > 100 µM
- GI50 (HL-60(TB); [2]): 61.7 µM
- IC (TGI) (HL-60(TB); read-out: Log10 TGI): > 100 µM
- GI50 (HOP-62; HOP-62, read-out: Log10 GI50 (converted)): > 100 µM
- IC (TGI) (HOP-62; HOP-62, read-out: Log10 TGI (converted)): > 100 µM
- GI50 (HCT-15; HCT-15, read-out: Log10 GI50 (converted)): > 100 µM
- IC (TGI) (HCT-15; HCT-15, read-out: Log10 TGI (converted)): > 100 µM
- GI50 (COLO 205; COLO 205, read-out: Log10 GI50 (converted)): < 0.01 µM
- IC (TGI) (COLO 205; COLO 205, read-out: Log10 TGI (converted)): 1.05 µM
- GI50 (UACC-62; UACC-62, read-out: Log10 GI50 (converted)): < 0.01 µM
- IC (TGI) (UACC-62; UACC-62, read-out: Log10 TGI (converted)): > 100 µM
- GI50 (CAKI-1; CAKI-1, read-out: Log10 GI50 (converted)): < 0.01 µM
- IC (TGI) (CAKI-1; CAKI-1, read-out: Log10 TGI (converted)): < 0.01 µM

Source: patent US20040063662A1, “Selenophene anti-tumor agents” (priority 1996, published 2004)
